In DBAASP:
Converted amounts (≈) assume the structure as drawn. Values belong to the compound of their own block, whether it stands above or below them.

Assays:
Experiment in all cases: ≥ marks a high value that may be exact or a test limit, other limits are often not marked, values filed in µg/mL are converted to µM
Escherichia coli SBS 363 = system: Escherichia coli SBS 363
[1] = system: Serratia marcescens ATCC 4112
Candida albicans MDM8 = system: Candida albicans MDM8
[2] = system: Candida tropicalis IOC 4560
[3] = system: Bacillus subtilis ATCC 6633
[4] = system: Pseudomonas aeruginosa NCIB 10421
Micrococcus luteus A270 = system: Micrococcus luteus A270
[5] = system: Enterobacter cloacae beta-12
[6] = system: Bacillus megaterium ATCC 10778
[7] = system: Staphylococcus aureus ATCC 29213
[8] = system: Pseudomonas aeruginosa PA214
Escherichia coli K-12 = system: Escherichia coli K-12
[9] = system: Pseudomonas aeruginosa PAO1
[10] = system: Pseudomonas aeruginosa PA330
[11] = system: Microsporum canis MW768151
Proteus mirabilis = system: Proteus mirabilis
Escherichia coli D31 = system: Escherichia coli D31
[12] = system: Staphylococcus pseudintermedius
Beauveria bassiana = system: Beauveria bassiana
[13] = system: Salmonella enterica subsp. arizonae ATCC 13314
[14] = system: Staphylococcus cohnii MW767053
[15] = system: Pseudomonas aeruginosa ATCC 27853
[16] = system: Staphylococcus pseudintermedius MW767056
Staphylococcus sciuri = system: Staphylococcus sciuri
[17] = system: Staphylococcus haemolyticus
Staphylococcus simulans = system: Staphylococcus simulans
[18] = system: Salmonella enterica subsp. enterica serovar Typhimurium ATCC 14028
Microsporum canis = system: Microsporum canis
[19] = system: Trichophyton mentagrophytes
Aspergillus niger = system: Aspergillus niger
[20] = system: Alcaligenes faecalis ATCC 8750
[21] = system: Saccharomyces cerevisiae PM340
[22] = system: Staphylococcus epidermidis DSM 28319
[23] = system: Acinetobacter baumannii AL1851-ΔLpxA
Shigella sonnei DSM 5570 = system: Shigella sonnei DSM 5570
[24] = system: Citrobacter freundii DSM 30029
[25] = system: Klebsiella pneumoniae DSM 789
[26] = system: Acinetobacter baumannii Al1852-ΔLpxD
[27] = system: Staphylococcus aureus DSM 11729
[28] = system: Acinetobacter baumannii ATCC 19606
[29] = system: Escherichia coli DSM 1103
[30] = system: Salmonella enterica DSM 17058
[31] = system: Pseudomonas aeruginosa DSM 1117
[32] = system: Staphylococcus aureus NBRC 13276
[33] = system: Staphylococcus epidermidis NBRC 12298
[34] = system: Escherichia coli DH5alpha
[35] = system: Pseudomonas aeruginosa NBRC 13275
[36] = system: Staphylococcus aureus NCTC 8325
[37] = system: Pseudomonas aeruginosa PA7
Escherichia coli MG1655 = system: Escherichia coli MG1655

SMILES: CC[C@H](C)[C@H](NC(=O)[C@H](CC(=O)O)NC(=O)[C@H](Cc1c[nH]c2ccccc12)NC(=O)[C@H](CCCCN)NC(=O)[C@@H]1CCCN1C(=O)[C@H](CC(C)C)NC(=O)[C@H](CCSC)NC(=O)[C@H](Cc1ccc(O)cc1)NC(=O)[C@H](CC(C)C)NC(=O)[C@H](CC(N)=O)NC(=O)[C@@H](NC(=O)CN)[C@@H](C)O)C(=O)N1CCC[C@H]1C(N)=O [GTNLYMLPKWDIP]
MIC [22]: 0.5 µM (≈ 0.773 µg/mL) | MIC [23]: 16 µM (≈ 24.7 µg/mL) | MIC (Shigella sonnei DSM 5570): 2 µM (≈ 3.09 µg/mL) | MIC [24]: 4 µM (≈ 6.19 µg/mL) | MIC [25]: ≥ 32 µM | MIC [26]: ≥ 32 µM | MIC [27]: 16 µM (≈ 24.7 µg/mL) | MIC [28]: 32 µM (≈ 49.5 µg/mL) | MIC [29]: 8 µM (≈ 12.4 µg/mL) | MIC [30]: 16 µM (≈ 24.7 µg/mL) | MIC [31]: 1 µM (≈ 1.55 µg/mL)

SMILES: CC[C@H](C)[C@H](NC(=O)CN)C(=O)N[C@@H](CCCCN)C(=O)N[C@@H](CCCCN)C(=O)N[C@@H](Cc1ccccc1)C(=O)N[C@@H](CC(C)C)C(=O)N[C@@H](CCCCN)C(=O)N[C@@H](CO)C(=O)N[C@@H](C)C(=O)N[C@@H](CCCCN)C(=O)N[C@@H](CCCCN)C(=O)N[C@@H](Cc1ccccc1)C(=O)N[C@H](C(=O)N[C@@H](CCCCN)C(=O)N[C@@H](C)C(=O)N[C@@H](Cc1ccccc1)C(=O)N[C@@H](CCCCN)C(N)=O)C(C)C [GIKKFLKSAKKFVKAFK]
MIC [32]: 6.25 µM (≈ 12.3 µg/mL) | MIC [33]: 3.12 µM (≈ 6.15 µg/mL) | MIC [34]: 3.12 µM (≈ 6.15 µg/mL) | MIC [35]: 1.56 µM (≈ 3.07 µg/mL)

SMILES: CC[C@H](C)[C@H](N)C(=O)N[C@@H](CCCCN)C(=O)N[C@H](C(=O)N1CCC[C@H]1C(=O)N[C@@H](C)C(=O)N[C@H](C(=O)N[C@H](C(=O)N[C@@H](CCCCN)C(=O)N[C@@H](CC(=O)O)C(=O)N[C@H](C(=O)N[C@@H](CCC(N)=O)C(=O)N[C@@H](CCCCN)C(=O)N[C@@H](CCCCN)C(=O)N[C@H](C(=O)N[C@@H](C)C(=O)N[C@@H](CCCCN)C(=O)NCC(=O)N[C@H](C(=O)N[C@H](C(=O)N[C@@H](CO)C(=O)N[C@H](C(=O)N[C@H](C(=O)N[C@@H](C)C(=O)N[C@@H](CC(=O)O)C(=O)N[C@@H](C)C(=O)N[C@@H](CC(C)C)C(=O)N[C@@H](CO)C(=O)N[C@@H](CCCCN)C(=O)N[C@@H](CO)C(=O)O)C(C)C)[C@@H](C)O)[C@@H](C)CC)C(C)C)C(C)C)[C@@H](C)O)C(C)C)[C@@H](C)CC)C(C)C [IKVPAIVKDTQKKVAKGVISTVADALSKS]
MIC [36]: ≥ 512 µM | MIC [37]: ≥ 512 µM | MIC (Escherichia coli MG1655): ≥ 512 µM | MIC [9]: > 512 µM

More lines, main results first:

MIC (Escherichia coli SBS 363): 1.56 µM (≈ 2.46 µg/mL) | MIC [1]: 0.78 µM (≈ 1.23 µg/mL) | MIC (Candida albicans MDM8): 3.13 µM (≈ 4.93 µg/mL) | MIC [2]: 1.56 µM (≈ 2.46 µg/mL) | MIC [3]: 0.78 µM (≈ 1.23 µg/mL) | MIC [4]: 12.5 µM (≈ 19.7 µg/mL) | MIC (Micrococcus luteus A270): 0.78 µM (≈ 1.23 µg/mL) | MIC [5]: 12.5 µM (≈ 19.7 µg/mL) | MIC [6]: 0.78 µM (≈ 1.23 µg/mL) | MIC [7]: 1.6 µM (≈ 2.52 µg/mL)
SMILES: CC[C@H](C)[C@H](NC(=O)CNC(=O)[C@H](CCC(=O)O)NC(=O)[C@H](Cc1c[nH]c2ccccc12)NC(=O)[C@@H](NC(=O)[C@H](CCCCN)NC(=O)CNC(=O)[C@H](CC(C)C)NC(=O)[C@@H](N)Cc1c[nH]c2ccccc12)[C@@H](C)CC)C(=O)N[C@@H](CCCCN)C(=O)N[C@@H](CO)C(=O)N[C@@H](CC(C)C)C(=O)N[C@@H](Cc1ccccc1)C(N)=O [WLGKIWEGIKSLF]

MIC [8]: 3.1 µM (≈ 6.21 µg/mL) | MIC (Escherichia coli K-12): 1.6 µM (≈ 3.21 µg/mL) | MIC [9]: 3.1 µM (≈ 6.21 µg/mL) | MIC [10]: 6.3 µM (≈ 12.6 µg/mL)
SMILES: CC(C)C[C@H](NC(=O)[C@H](C)NC(=O)[C@H](CCCCN)NC(=O)[C@H](Cc1ccccc1)NC(=O)[C@H](CC(C)C)NC(=O)[C@H](CCCCN)NC(=O)[C@H](C)NC(=O)[C@H](Cc1c[nH]c2ccccc12)NC(=O)[C@H](C)NC(=O)[C@H](CCCCN)NC(=O)[C@H](CC(C)C)NC(=O)[C@H](Cc1ccccc1)NC(=O)[C@H](CCCCN)NC(=O)[C@H](CCCCN)NC(=O)[C@H](CC(C)C)NC(=O)[C@H](C)NC(=O)[C@@H](N)CCCCN)C(N)=O [KALKKFLKAWAKLFKAL]

MIC (Escherichia coli SBS 363): 25 µM (≈ 30.3 µg/mL) | MIC [11]: 0.412 µM (≈ 0.5 µg/mL) | MIC (Proteus mirabilis): ≥ 211 µM | MIC (Escherichia coli D31): 12.5 µM (≈ 15.2 µg/mL) | MIC [1]: 25 µM (≈ 30.3 µg/mL) | MIC [12]: ≥ 105 µM | MIC (Beauveria bassiana): 25 µM (≈ 30.3 µg/mL) | MIC [13]: 25 µM (≈ 30.3 µg/mL) | MIC (Candida albicans MDM8): 25 µM (≈ 30.3 µg/mL) | MIC [2]: 25 µM (≈ 30.3 µg/mL) | MIC [3]: 25 µM (≈ 30.3 µg/mL) | MIC [14]: ≥ 211 µM | MIC [15]: 12.5 µM (≈ 15.2 µg/mL) | MIC [16]: ≥ 105 µM | MIC (Micrococcus luteus A270): 6.24 µM (≈ 7.58 µg/mL) | MIC [5]: 25 µM (≈ 30.3 µg/mL) | MIC (Staphylococcus sciuri): ≥ 211 µM | MIC [6]: 12.5 µM (≈ 15.2 µg/mL) | MIC (Staphylococcus simulans): ≥ 105 µM | MIC [18]: 12.5 µM (≈ 15.2 µg/mL) | MIC [7]: 6.24 µM (≈ 7.58 µg/mL) | MIC (Microsporum canis): 0.824 µM (≈ 1 µg/mL) | MIC [19]: 0.412 µM (≈ 0.5 µg/mL) | MIC (Aspergillus niger): 25 µM (≈ 30.3 µg/mL) | MIC [20]: 12.5 µM (≈ 15.2 µg/mL) | MIC [21]: 25 µM (≈ 30.3 µg/mL)
SMILES: CC(C)[C@H](N)C(=O)N[C@@H](C)C(=O)N[C@@H](CCC(=O)O)C(=O)N[C@@H](C)C(=O)N[C@@H](CCCN=C(N)N)C(=O)N[C@@H](CCC(N)=O)C(=O)NCC(=O)N[C@@H](CO)C(=O)N[C@@H](Cc1ccccc1)C(=O)N[C@@H](CO)C(=O)N[C@@H](Cc1ccc(O)cc1)C(=O)O [VAEARQGSFSY]
MIC [17]: ≥ 211 µM
